These results are taken from ChEMBL document CHEMBL6109039, “Designed and synthesized novel tripeptides targeting diabetes and its related pathologies” (Eur J Med Chem, 2025).

Series [1] addresses T1, Albumin (Homo sapiens, UniProt P02768). Briefly: Inhibition of D-fructose glycation in human serum albumin model by measuring ketoamine moieties incubated for 5 days by Nitroblue tetrazolium (NBT) reduction assay (reference value: 111.94 nmol/mL). As to conditions: 120 h, time 5 day.
Series [2] addresses T1, Albumin. Briefly: Inhibition of D-glucose glycation in human serum albumin model assessed as reduction in fluorescence intensity incubated for 3 days by UV spectroscopic analysis relative to control. As to conditions: 72 h, time 3 day.
The target of series [3] is T1, Albumin. Kind of series: Inhibition of D-glucose glycation in human serum albumin model by measuring absorbance at 279 nm incubated for 7 days by UV spectroscopic analysis (reference value: […]). As to conditions: 168 h, time 7 day.
Series [4] has as its system Mus musculus. Kind of series: Antidiabetic activity in Nicotinamide/Streptozotocin induced male Balb/c mouse model assessed as relative liver weight at 63.81 ug/kg, ip treated for 21 days (reference value: 0.77 +/- 0.04 mg/g). The series is classed as functional. As to conditions: dose 63.81 µg/kg, time 21 day.
The next series deals with T2, Pancreatic alpha-amylase (Sus scrofa, UniProt P00690).
T2 sequence (P00690 whole entry): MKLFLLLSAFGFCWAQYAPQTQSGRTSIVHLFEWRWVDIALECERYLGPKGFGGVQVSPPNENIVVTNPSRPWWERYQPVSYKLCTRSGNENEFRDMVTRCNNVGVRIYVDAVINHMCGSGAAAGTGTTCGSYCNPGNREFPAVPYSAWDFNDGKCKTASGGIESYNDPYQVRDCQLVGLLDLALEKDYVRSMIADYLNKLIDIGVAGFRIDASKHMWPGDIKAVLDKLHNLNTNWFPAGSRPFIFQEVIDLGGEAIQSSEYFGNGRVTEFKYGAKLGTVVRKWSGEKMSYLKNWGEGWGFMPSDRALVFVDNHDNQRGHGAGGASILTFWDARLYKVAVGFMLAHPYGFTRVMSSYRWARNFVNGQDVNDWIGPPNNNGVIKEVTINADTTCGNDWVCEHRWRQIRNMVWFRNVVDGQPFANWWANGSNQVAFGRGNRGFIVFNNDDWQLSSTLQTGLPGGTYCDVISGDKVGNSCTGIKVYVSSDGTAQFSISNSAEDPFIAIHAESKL
Kind of series: Inhibition of porcine pancreatic Alpha-amylase using starch as substrate pre-incubated for 20 mins followed by substrate addition and measured after 15 mins by DNS reagent based absorbance assay.

For series [5], the system named is Mus musculus. Briefly: Antidiabetic activity in Nicotinamide/Streptozotocin induced male Balb/c mouse model assessed as reduction in HDL-cholesterol level in blood at 63.81 ug/kg, ip treated for 21 days (reference value: 30 +/- 1.80 mg/dL). The format is functional. As to conditions: dose 63.81 µg/kg, time 21 day.
Series [6] deals with T1, Albumin. Briefly: Inhibition of D-fructose glycation in human serum albumin model by measuring ketoamine moieties incubated for 3 days by Nitroblue tetrazolium (NBT) reduction assay (reference value: 152.64 nmol/mL). As to conditions: 72 h, time 3 day.
Series [7] concerns Mus musculus. Briefly: Antidiabetic activity in Nicotinamide/Streptozotocin induced male Balb/c mouse model assessed as reduction in VLDL-cholesterol level in blood at 63.81 microg/kg, ip treated for 21 days (reference value: 14 +/- 0.6 mg/dL). The format is functional. As to conditions: dose 63.81 µg/kg, time 21 day.
The target of series [8] is T1, Albumin. Kind of series: Inhibition of D-glucose glycation in human serum albumin model by measuring ketoamine moieties incubated for 30 days by Nitroblue tetrazolium (NBT) reduction assay (reference value: 27.85 nmol/mL). As to conditions: 720 h, time 30 day.
Series [9] addresses T1, Albumin. Briefly: Inhibition of D-glucose glycation in human serum albumin model by measuring absorbance at 279 nm incubated for 30 days by UV spectroscopic analysis (reference value: 2.295). As to conditions: 720 h, time 30 day.
For series [10], the target named is T1, Albumin. Kind of series: Inhibition of D-fructose glycation in human serum albumin model by measuring absorbance at 279 nm incubated for 3 days by UV spectroscopic analysis (reference value: 0.492). As to conditions: 72 h, time 3 day.
Series [11] has as its system Mus musculus. Kind of series: Antidiabetic activity in Nicotinamide/Streptozotocin induced male Balb/c mouse model assessed as reduction in fasting blood glucose levels at 63.81 ug/kg, ip measured immediately by glucometer analysis (reference value: 127.50 +/- 6.87 mg/dl). The series is classed as functional. As to conditions: dose 63.81 µg/kg.
The target of series [12] is T1, Albumin. Briefly: Inhibition of D-glucose glycation in human serum albumin model by measuring ketoamine moieties incubated for 5 days by Nitroblue tetrazolium (NBT) reduction assay (reference value: 18.58 nmol/mL). As to conditions: 120 h, time 5 day.
In series [13] the test system is Mus musculus. Kind of series: Antidiabetic activity in Nicotinamide/Streptozotocin induced male Balb/c mouse model assessed as reduction in HbA1c levels at 63.81 ug/kg, ip treated for 21 days by Turbidimetric immunoassay. The series is classed as functional. Details: scale not given: the % may be the effect or the level left. As to conditions: dose 63.81 µg/kg, time 21 day.

The target of series [14] is T1, Albumin. Kind of series: Inhibition of D-glucose glycation in human serum albumin model by measuring absorbance at 279 nm incubated for 26 days by UV spectroscopic analysis (reference value: 2.301). As to conditions: 624 h, time 26 day.
In series [15] the test system is Mus musculus. Kind of series: Antidiabetic activity in Nicotinamide/Streptozotocin induced male Balb/c mouse model assessed as Non-HDL-Cholesterol level in blood at 63.81 ug/kg, ip treated for 21 days (reference value: 75 mg/dL). The format is functional. As to conditions: dose 63.81 µg/kg, time 21 day.
Series [16] deals with T1, Albumin. Briefly: Inhibition of D-fructose glycation in human serum albumin model by measuring ketoamine moieties incubated for 33 days by Nitroblue tetrazolium (NBT) reduction assay (reference value: 144.33 nmol/mL). As to conditions: 792 h, time 33 day.
Series [17] concerns the target T1, Albumin. Briefly: Inhibition of D-glucose glycation in human serum albumin model incubated for 14 days by UV spectroscopic analysis relative to control. As to conditions: 336 h, time 14 day.
Series [18] has as its system Mus musculus. Kind of series: Antidiabetic activity in Nicotinamide/Streptozotocin induced male Balb/c mouse model assessed as reduction in total cholesterol level in blood at 63.81 ug/kg, ip treated for 21 days (reference value: 121 +/- 6.05 mg/dL). The series is classed as functional. As to conditions: dose 63.81 µg/kg, time 21 day.
Series [19] deals with Mus musculus. Briefly: Antidiabetic activity in Nicotinamide/Streptozotocin induced male Balb/c mouse model assessed as change in body weight at 63.81 ug/kg, ip treated for 21 days relative to control. The format is functional. As to conditions: dose 63.81 µg/kg, time 21 day.
The target of series [20] is T1, Albumin. Kind of series: Inhibition of D-fructose glycation in human serum albumin model by measuring absorbance at 279 nm incubated for 5 days by UV spectroscopic analysis (reference value: 1.056). As to conditions: 120 h, time 5 day.
The target in series [21] is T1, Albumin. Kind of series: Inhibition of D-fructose glycation in human serum albumin model by measuring absorbance at 279 nm incubated for 14 days by UV spectroscopic analysis (reference value: 2.333). As to conditions: 336 h, time 14 day.

Residues, ends and D or L forms follow the SMILES beside them.

T1 sequence (P02768 whole entry): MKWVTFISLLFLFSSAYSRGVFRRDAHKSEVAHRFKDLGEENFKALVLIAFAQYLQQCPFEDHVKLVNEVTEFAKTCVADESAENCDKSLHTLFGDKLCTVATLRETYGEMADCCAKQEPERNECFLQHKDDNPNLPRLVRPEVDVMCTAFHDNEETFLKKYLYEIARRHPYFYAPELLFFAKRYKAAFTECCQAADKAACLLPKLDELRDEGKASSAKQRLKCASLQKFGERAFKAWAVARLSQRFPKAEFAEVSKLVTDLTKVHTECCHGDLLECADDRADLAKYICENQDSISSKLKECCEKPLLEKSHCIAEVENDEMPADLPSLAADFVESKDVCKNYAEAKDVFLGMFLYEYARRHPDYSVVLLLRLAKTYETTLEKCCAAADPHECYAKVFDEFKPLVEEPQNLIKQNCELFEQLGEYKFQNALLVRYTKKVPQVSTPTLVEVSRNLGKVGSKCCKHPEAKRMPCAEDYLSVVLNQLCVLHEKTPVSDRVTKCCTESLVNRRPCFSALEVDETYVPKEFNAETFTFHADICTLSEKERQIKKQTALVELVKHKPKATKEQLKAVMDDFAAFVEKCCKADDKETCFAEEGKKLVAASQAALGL

In the case of `N=C(N)NCCC[C@H](N)C(=O)N[C@@H](Cc1c[nH]c2ccccc12)C(=O)N[C@@H](Cc1c[nH]c2ccccc12)C(=O)O` (H-Arg-Trp-Trp-OH), the Activity at Albumin [1] was determined as 90.74 nmol/mL; in the series with Mus musculus [4], 1.22 mg/g; in the series with Mus musculus [5], 41 mg/dL; at Albumin [6] it was 135.37 nmol/mL; with Mus musculus [7] it was 11 mg/dL; at Albumin [8] it was 18.908 nmol/mL. In addition, the Activity in the series with Mus musculus [11] came out at 111.5 mg/dL; on Albumin [12], 12.342 nmol/mL; in the series on Mus musculus [13], 7.2%; in the series on Mus musculus [15], 67 mg/dL; on Albumin [16] it was 109.89 nmol/mL; with Mus musculus [18], 108 mg/dL. Also, the Activity in the series on Mus musculus [19] was 2.7%. For the same compound, the “inhibition (INH)” value at Albumin [2] was 78%; at Albumin [17], 74.68%. Also, the OD on Albumin [3] was 0.434; at Albumin [9], 2.555; at Albumin [10] it was 0.287; on Albumin [14], 2.301; at Albumin [20] it was 0.482; on Albumin [21], 1.207. This compound registered an IC50 at Pancreatic alpha-amylase of 96 µM.

Usually IC50 stands for the concentration needed to halve the response being measured.
